Experimental findings from patent US11345678B2, “Benzopyrazole compound used as RHO kinase inhibitor” (MEDSHINE DISCOVERY INC., priority 2018, dated 2022) are described below.

Each structure is given as a SMILES string.

For one data set, the target named is ROCK1 (Homo sapiens (Human), UniProt Q13464). Description: In vitro inhibitory activity against ROCK protein kinase (33P-ATP filter-binding), ROCK1. The format is biochemical. The note with it: 1 nM ROCK protein kinase, 20 μM Long S6 Kinase substrate peptide. Here is the method: (§1) 1. In Vitro Evaluation of the Inhibitory Activity Against ROCK Protein Kinase
Chain of ROCK1 (Q13464 whole entry): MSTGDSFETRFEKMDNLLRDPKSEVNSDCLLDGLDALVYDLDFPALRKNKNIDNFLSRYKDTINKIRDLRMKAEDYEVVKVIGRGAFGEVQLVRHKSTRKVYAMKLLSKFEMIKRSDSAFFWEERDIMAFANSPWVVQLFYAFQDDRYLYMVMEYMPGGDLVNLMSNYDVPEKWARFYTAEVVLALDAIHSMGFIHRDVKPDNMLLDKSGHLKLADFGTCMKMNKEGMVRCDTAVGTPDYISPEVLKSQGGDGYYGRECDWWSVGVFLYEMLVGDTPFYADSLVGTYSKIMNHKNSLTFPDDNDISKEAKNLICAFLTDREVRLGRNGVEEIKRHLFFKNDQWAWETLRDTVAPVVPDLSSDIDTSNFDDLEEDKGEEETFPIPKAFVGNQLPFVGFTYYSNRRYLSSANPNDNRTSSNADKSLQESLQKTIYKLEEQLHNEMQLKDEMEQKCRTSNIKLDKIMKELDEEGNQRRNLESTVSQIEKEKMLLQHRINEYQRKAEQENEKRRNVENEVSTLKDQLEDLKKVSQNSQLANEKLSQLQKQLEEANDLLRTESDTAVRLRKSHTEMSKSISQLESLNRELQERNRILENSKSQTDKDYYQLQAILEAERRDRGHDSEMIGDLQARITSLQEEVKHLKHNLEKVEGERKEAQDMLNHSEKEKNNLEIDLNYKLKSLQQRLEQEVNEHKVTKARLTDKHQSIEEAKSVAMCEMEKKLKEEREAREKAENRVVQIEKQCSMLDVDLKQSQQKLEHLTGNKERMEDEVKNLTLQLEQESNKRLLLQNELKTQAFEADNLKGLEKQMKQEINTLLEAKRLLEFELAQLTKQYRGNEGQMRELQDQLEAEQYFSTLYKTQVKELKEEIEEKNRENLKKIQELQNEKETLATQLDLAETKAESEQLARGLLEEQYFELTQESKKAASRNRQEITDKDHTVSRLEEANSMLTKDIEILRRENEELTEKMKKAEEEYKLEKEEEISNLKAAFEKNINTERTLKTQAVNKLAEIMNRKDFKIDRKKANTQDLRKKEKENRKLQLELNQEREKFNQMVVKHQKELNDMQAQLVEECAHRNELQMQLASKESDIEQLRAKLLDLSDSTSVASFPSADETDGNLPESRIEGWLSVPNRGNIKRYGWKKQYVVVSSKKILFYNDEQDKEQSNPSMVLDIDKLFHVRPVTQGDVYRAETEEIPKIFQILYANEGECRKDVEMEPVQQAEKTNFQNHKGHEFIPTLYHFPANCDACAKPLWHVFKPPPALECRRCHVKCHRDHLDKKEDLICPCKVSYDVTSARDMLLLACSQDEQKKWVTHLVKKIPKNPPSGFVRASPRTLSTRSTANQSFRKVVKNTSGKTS
(§2) Experimental purpose: to detect the inhibitory IC50 value of the compound against ROCK protein kinase.
(§3) Assay buffer solution: 20 mM 4-hydroxyethylpiperazine ethanesulfonic acid (pH 7.5), 10 mM magnesium chloride, 1 mM ethylene glycol-bis-(2-aminoethyl)tetraacetic acid, 0.02% polyethylene glycol monododecyl ether, 0.02 mg/mL bovine serum albumin, 0.1 mM sodium vanadate, 2 mM dithiothreitol, 1% DMSO.
(§4) The freshly prepared buffer solution was added to ROCK protein kinase substrate (Long S6 Kinase substrate peptide), at a concentration of 20 μM, then 1 nM ROCK protein kinase was added thereto and stirred evenly. Echo550 was used to add a series of DMSO dilutions containing the test compound (starting from 10 μM, serially diluted by 3 times), the solution was pre-incubated at room temperature for 20 minutes, then ^33P-ATP (radiation intensity 10 μCi/μL) was added to initiate the reaction, and the reaction was performed at room temperature for two hours. Then the solution was filtered by P81 ion exchange paper (Whatman #3698-915) and washed with 0.75% phosphoric acid. The radiation intensity was determined by Filter-Binding method.
(§5) The protein kinase inhibitory activity of the compound was expressed as the remaining protein kinase activity relative to the blank substrate (simply DMSO). Prism software package (GraphPad Software, San Diego Calif., USA) was used to calculate IC50 value and the curve.
For the molecule `O=C(NC(CO)c1cccc(F)c1)c1cccc(-c2ccc3[nH]nc(F)c3c2)c1` (stereo not drawn) [Compound 60], the IC50 (as a rule, the point on the concentration scale where inhibition reaches its midpoint) was found to be 215 nM.

`Cc1n[nH]c2ccc(-c3cccc(C(=O)NC(CN)c4cccc(F)c4F)c3)cc12` (stereo not drawn) [Compound 61] had a half-inhibitory concentration (IC50) of 253 nM. The IC50 values of the last two molecules are within 1.5-fold of each other.

For the molecule `NCC(NC(=O)c1cccc(-c2ccc3[nH]nc(F)c3c2)c1)c1cccc(F)c1F` (stereo not drawn) [Compound 62], the IC50 came out at 289 nM. The IC50 values of the last two molecules are within 1.5-fold of each other.

In turn, `COc1cccc(C(NC(=O)c2cccc(-c3ccc4[nH]nc(C)c4c3)c2)C(C)(C)N)c1` (stereo not drawn) [Compound 64] displayed an IC50 of 798 nM.

For the molecule `CNCC(NC(=O)c1cccc(-c2ccc3[nH]nc(C)c3c2)c1)c1cccc(OC)c1` (stereo not drawn) [Compound 65], the concentration for half-maximal inhibition (IC50) came out at 138 nM.

With `CNCC(NC(=O)c1cc(-c2ccc3[nH]nc(C)c3c2)ccn1)c1cccc(OC)c1` (stereo not drawn) [Compound 66], the half-maximal inhibitory concentration (IC50) was determined as 193 nM.

In turn, `Cc1cccc(C(CN)NC(=O)c2cc(-c3ccc4[nH]nc(C)c4c3)ccn2)c1` (stereo not drawn) [Compound 67] came in with a half-inhibitory concentration (IC50) of 336 nM.

As to `COc1cccc(C(CN)NC(=O)c2cccc(-c3cc(OC)c4[nH]ncc4c3)c2)c1` (stereo not drawn) [Compound 71], the IC50 worked out at 758 nM. This IC50 lies about 2.3-fold higher than the previous one.

Molecule `COc1cccc(C(CNS(C)(=O)=O)NC(=O)c2cccc(-c3ccc4[nH]nc(C)c4c3)c2)c1` (stereo not drawn) [Compound 72] yielded an IC50 of 587 nM.

The target of the next data set is ROCK2 (Homo sapiens (Human), UniProt O75116). Nature of the data set: In vitro inhibitory activity against ROCK protein kinase (33P-ATP filter-binding), ROCK2. The format is biochemical. The note with it: 1 nM ROCK protein kinase, 20 μM Long S6 Kinase substrate peptide. The method, then: as §1, §2, §3, §4, §5
Chain of ROCK2 (O75116 whole entry): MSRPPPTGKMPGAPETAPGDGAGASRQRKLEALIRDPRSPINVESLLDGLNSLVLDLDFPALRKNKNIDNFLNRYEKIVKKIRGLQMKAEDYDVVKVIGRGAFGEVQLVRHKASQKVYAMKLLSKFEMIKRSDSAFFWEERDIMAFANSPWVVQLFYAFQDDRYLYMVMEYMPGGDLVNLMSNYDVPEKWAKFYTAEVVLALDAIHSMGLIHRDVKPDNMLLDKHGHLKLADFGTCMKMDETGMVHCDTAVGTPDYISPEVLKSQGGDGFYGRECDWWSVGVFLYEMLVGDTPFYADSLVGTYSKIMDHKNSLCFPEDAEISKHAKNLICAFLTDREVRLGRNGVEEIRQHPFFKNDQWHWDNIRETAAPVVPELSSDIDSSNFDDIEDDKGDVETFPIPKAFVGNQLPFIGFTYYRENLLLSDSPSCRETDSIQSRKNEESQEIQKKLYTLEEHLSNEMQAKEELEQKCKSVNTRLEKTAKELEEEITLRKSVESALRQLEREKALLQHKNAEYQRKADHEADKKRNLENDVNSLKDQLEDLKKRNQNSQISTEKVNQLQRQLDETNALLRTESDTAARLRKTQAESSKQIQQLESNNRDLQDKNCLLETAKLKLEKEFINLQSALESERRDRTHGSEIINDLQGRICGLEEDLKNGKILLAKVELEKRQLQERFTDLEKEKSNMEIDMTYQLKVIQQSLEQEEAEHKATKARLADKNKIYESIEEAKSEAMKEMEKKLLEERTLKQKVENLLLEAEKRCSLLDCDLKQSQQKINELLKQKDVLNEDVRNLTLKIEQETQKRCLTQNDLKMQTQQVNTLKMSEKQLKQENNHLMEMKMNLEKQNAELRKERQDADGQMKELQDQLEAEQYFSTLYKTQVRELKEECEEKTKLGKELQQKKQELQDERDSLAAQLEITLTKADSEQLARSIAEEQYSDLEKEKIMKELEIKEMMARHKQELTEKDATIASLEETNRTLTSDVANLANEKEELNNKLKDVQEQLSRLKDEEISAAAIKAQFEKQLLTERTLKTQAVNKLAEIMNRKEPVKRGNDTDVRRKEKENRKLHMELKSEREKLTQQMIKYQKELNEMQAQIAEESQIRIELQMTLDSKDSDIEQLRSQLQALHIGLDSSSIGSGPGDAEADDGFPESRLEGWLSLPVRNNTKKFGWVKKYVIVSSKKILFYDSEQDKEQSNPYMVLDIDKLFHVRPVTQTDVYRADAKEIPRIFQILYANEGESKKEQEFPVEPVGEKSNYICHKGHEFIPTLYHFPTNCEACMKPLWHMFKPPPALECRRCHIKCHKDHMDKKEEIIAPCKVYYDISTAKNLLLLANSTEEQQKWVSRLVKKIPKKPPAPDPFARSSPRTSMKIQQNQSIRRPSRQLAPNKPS
For the molecule `O=C(NC(CO)c1cccc(F)c1)c1cccc(-c2ccc3[nH]nc(F)c3c2)c1` (stereo not drawn) [Compound 60], the 50% inhibitory concentration (IC50) is 44 nM.

As to `Cc1n[nH]c2ccc(-c3cccc(C(=O)NC(CN)c4cccc(F)c4F)c3)cc12` (stereo not drawn) [Compound 61], the IC50 was found to be 23 nM. This IC50 lies about 1.9-fold lower than the previous one.

With `NCC(NC(=O)c1cccc(-c2ccc3[nH]nc(F)c3c2)c1)c1cccc(F)c1F` (stereo not drawn) [Compound 62], the IC50 was 48 nM.

In the case of `COc1cccc(C(NC(=O)c2cccc(-c3ccc4[nH]nc(C)c4c3)c2)C(C)(C)N)c1` (stereo not drawn) [Compound 64], the IC50 is 46 nM.

On to `CNCC(NC(=O)c1cccc(-c2ccc3[nH]nc(C)c3c2)c1)c1cccc(OC)c1` (stereo not drawn) [Compound 65], for which the IC50 was 4 nM.

With `CNCC(NC(=O)c1cc(-c2ccc3[nH]nc(C)c3c2)ccn1)c1cccc(OC)c1` (stereo not drawn) [Compound 66], the half-maximal inhibitory concentration (IC50) was 11 nM.

With `Cc1cccc(C(CN)NC(=O)c2cc(-c3ccc4[nH]nc(C)c4c3)ccn2)c1` (stereo not drawn) [Compound 67], the half-inhibitory concentration (IC50) was 22 nM.

Regarding `COc1cccc(C(CN)NC(=O)c2cccc(-c3cc(OC)c4[nH]ncc4c3)c2)c1` (stereo not drawn) [Compound 71], the half-maximal inhibitory concentration (IC50) was 9 nM.

With `COc1cccc(C(CNS(C)(=O)=O)NC(=O)c2cccc(-c3ccc4[nH]nc(C)c4c3)c2)c1` (stereo not drawn) [Compound 72], the IC50 came to 12 nM.

System in another data set: not listed separately
Nature of the data set: Pharmacokinetics in SD rats (intravenous injection and oral administration). The format is in vivo. The note with it: rat, plasma; male SD rats, intravenous 1 mg/kg; read-out: Clearance rate CL. The method, then: 4. Evaluation of the Pharmacokinetics of the Compound
Experimental purpose: to study the pharmacokinetics of the compounds in SD rats in vivo
SD rat (male, 7 to 10 weeks old, WTLH/SLAC)
The rodent pharmacokinetic characteristics of the compounds after intravenous injection and oral administration were tested by standard protocols. In the experiment, the candidate compounds were formulated into 0.2 mg/mL clear solutions and were given to the rats by a single intravenous injection and oral administration. The vehicles of the intravenous injection and oral administration were both 5% DMSO/95% (10% hydroxypropyl P-cyclodextrin) aqueous solution. This project used four male SD rats and two of them were administered by intravenous injection at a dosage of 1 mg/kg, plasma samples were collected at 0.0833, 0.25, 0.5, 1, 2, 4, 6, 8, and 24 hours after administration, the other two rats were administered orally and intragastrically at a dosage of 2 mg/kg, plasma samples were collected at 0.25, 0.5, 1, 2, 3, 4, 6, 8, 24 hours after administration. The whole blood samples were collected within 24 hours and centrifuged at 3000 g for 15 minutes, and the supernatants were separated to give plasma samples. The plasma samples were added with an acetonitrile solution containing internal standard to precipitate protein, mixed thoroughly and centrifuged, and the supernatants were taken for injection. The blood drug concentration was quantitatively analyzed by LC-MS/MS analysis method, and the pharmacokinetic parameters (such as peak concentration (Cmax), clearance rate (CL), half-life (T1/2), […] (Vdss), area under the drug-time curve (AUC0-last), and bioavailability (F), etc.) were calculated.
`Cc1n[nH]c2ccc(-c3cccc(C(=O)NC(CN)c4cccc(F)c4F)c3)cc12` (stereo not drawn) [Compound 61]: the clearance was found to be 30.8 mL/min/kg.

With `COc1cccc(C(NC(=O)c2cccc(-c3ccc4[nH]nc(C)c4c3)c2)C(C)(C)N)c1` (stereo not drawn) [Compound 64], the clearance was 88.3 mL/min/kg.

Turning to `CNCC(NC(=O)c1cc(-c2ccc3[nH]nc(C)c3c2)ccn1)c1cccc(OC)c1` (stereo not drawn) [Compound 66], the clearance was 50.8 mL/min/kg.

With `COc1cccc(C(CNS(C)(=O)=O)NC(=O)c2cccc(-c3ccc4[nH]nc(C)c4c3)c2)c1` (stereo not drawn) [Compound 72], the clearance was found to be 55.7 mL/min/kg.

Staying with this data set, now noted: rat, plasma; male SD rats, intravenous 1 mg/kg; read-out: Half-life T1/2 (IV) (converted).
For the molecule `Cc1n[nH]c2ccc(-c3cccc(C(=O)NC(CN)c4cccc(F)c4F)c3)cc12` (stereo not drawn) [Compound 61], the half-life was 2.37 h.

Turning to `COc1cccc(C(NC(=O)c2cccc(-c3ccc4[nH]nc(C)c4c3)c2)C(C)(C)N)c1` (stereo not drawn) [Compound 64], the half-life was 2.83 h.

`CNCC(NC(=O)c1cc(-c2ccc3[nH]nc(C)c3c2)ccn1)c1cccc(OC)c1` (stereo not drawn) [Compound 66]: the half-life is 2.74 h.

In the case of `COc1cccc(C(CNS(C)(=O)=O)NC(=O)c2cccc(-c3ccc4[nH]nc(C)c4c3)c2)c1` (stereo not drawn) [Compound 72], the half-life was 0.62 h.

Still in this data set, the particulars now being: rat, plasma; male SD rats, intravenous 1 mg/kg; read-out: Tissue distribution Vdss.
Regarding `Cc1n[nH]c2ccc(-c3cccc(C(=O)NC(CN)c4cccc(F)c4F)c3)cc12` (stereo not drawn) [Compound 61], the Vd was found to be 4.72 L/kg.

As to `COc1cccc(C(NC(=O)c2cccc(-c3ccc4[nH]nc(C)c4c3)c2)C(C)(C)N)c1` (stereo not drawn) [Compound 64], the Vd was found to be 16.4 L/kg.

On to `CNCC(NC(=O)c1cc(-c2ccc3[nH]nc(C)c3c2)ccn1)c1cccc(OC)c1` (stereo not drawn) [Compound 66], for which the Vd was 10.5 L/kg.

For `COc1cccc(C(CNS(C)(=O)=O)NC(=O)c2cccc(-c3ccc4[nH]nc(C)c4c3)c2)c1` (stereo not drawn) [Compound 72], the Vd turned out to be 1.79 L/kg.

The data set is the same for the next values; noted with them: rat, plasma; male SD rats, oral 2 mg/kg vs intravenous 1 mg/kg; read-out: Bioavailability F.
As to `Cc1n[nH]c2ccc(-c3cccc(C(=O)NC(CN)c4cccc(F)c4F)c3)cc12` (stereo not drawn) [Compound 61], the bioavailability (usually dose-corrected exposure relative to a reference, in per cent) stood at 11%.

For `COc1cccc(C(NC(=O)c2cccc(-c3ccc4[nH]nc(C)c4c3)c2)C(C)(C)N)c1` (stereo not drawn) [Compound 64], the bioavailability turned out to be 12%.

As for `CNCC(NC(=O)c1cc(-c2ccc3[nH]nc(C)c3c2)ccn1)c1cccc(OC)c1` (stereo not drawn) [Compound 66], the bioavailability came to 20.9%.

Regarding `COc1cccc(C(CNS(C)(=O)=O)NC(=O)c2cccc(-c3ccc4[nH]nc(C)c4c3)c2)c1` (stereo not drawn) [Compound 72], the bioavailability came to 11%.

Staying with this data set, now noted: rat, plasma; male SD rats, oral 2 mg/kg; read-out: Area under the drug-time curve AUC0-last PO.
Turning to `Cc1n[nH]c2ccc(-c3cccc(C(=O)NC(CN)c4cccc(F)c4F)c3)cc12` (stereo not drawn) [Compound 61], the AUC(0-t) was 0.266 µM·h.

Turning to `COc1cccc(C(NC(=O)c2cccc(-c3ccc4[nH]nc(C)c4c3)c2)C(C)(C)N)c1` (stereo not drawn) [Compound 64], the AUC(0-t) is 0.1 µM·h.

Consider `CNCC(NC(=O)c1cc(-c2ccc3[nH]nc(C)c3c2)ccn1)c1cccc(OC)c1` (stereo not drawn) [Compound 66], for which the AUC(0-t) is 0.306 µM·h.

Consider `COc1cccc(C(CNS(C)(=O)=O)NC(=O)c2cccc(-c3ccc4[nH]nc(C)c4c3)c2)c1` (stereo not drawn) [Compound 72], for which the AUC(0-t) amounted to 0.148 µM·h.

The data set is the same for the next values; noted with them: rat, plasma; male SD rats, oral 2 mg/kg; read-out: Peak concentration Cmax.
`Cc1n[nH]c2ccc(-c3cccc(C(=O)NC(CN)c4cccc(F)c4F)c3)cc12` (stereo not drawn) [Compound 61]: the Cmax is 55.6 nM.

With `COc1cccc(C(NC(=O)c2cccc(-c3ccc4[nH]nc(C)c4c3)c2)C(C)(C)N)c1` (stereo not drawn) [Compound 64], the Cmax came out at 17 nM.

On to `CNCC(NC(=O)c1cc(-c2ccc3[nH]nc(C)c3c2)ccn1)c1cccc(OC)c1` (stereo not drawn) [Compound 66], for which the Cmax was found to be 50.7 nM.

Turning to `COc1cccc(C(CNS(C)(=O)=O)NC(=O)c2cccc(-c3ccc4[nH]nc(C)c4c3)c2)c1` (stereo not drawn) [Compound 72], the Cmax was determined as 99.4 nM.
